The text below walks through data of US20230043672A1, “AROMATIC AMIDO DERIVATIVES AS LPA RECEPTOR 2 INHIBITORS” (CHIESI FARMACEUTICI S.P.A., priority 2019, published 2023).

Broadly, the IC50 is the concentration that inhibits the measured activity by half.

T1 sequence (Q9HBW0 whole entry): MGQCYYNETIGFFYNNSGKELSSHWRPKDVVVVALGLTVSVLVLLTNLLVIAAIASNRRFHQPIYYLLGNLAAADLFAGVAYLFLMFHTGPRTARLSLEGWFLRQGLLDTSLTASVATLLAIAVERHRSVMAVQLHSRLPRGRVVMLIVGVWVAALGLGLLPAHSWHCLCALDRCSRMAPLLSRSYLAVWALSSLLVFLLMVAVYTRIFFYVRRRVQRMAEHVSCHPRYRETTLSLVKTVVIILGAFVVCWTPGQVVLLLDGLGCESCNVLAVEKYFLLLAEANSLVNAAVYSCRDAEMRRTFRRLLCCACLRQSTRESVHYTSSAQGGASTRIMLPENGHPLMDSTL

One assay has as its target T1, human recombinant LPA2 expressed in CHO cells (Homo sapiens, UniProt Q9HBW0).
T1 construct: expressed in transfected cells; host or cells: CHO cells (CHO-hLPA2 cell line)
Briefly: FLIPR calcium mobilization assay, LPA2 antagonism in CHO-hLPA2 cells. Format: cell-based. The note with it: LPA EC80 stimulation, potency class, read-out: LPA2 IC50. Here is the method: The effectiveness of compounds of the present invention as LPA2 antagonist can be determined at the human recombinant LPA2 expressed in CHO cells, using a FLIPR assay in 384 well format.
CHO-hLPA2 cell lines are cultured in a humidified incubator at 5% CO2 in DMEM/F-12 (1:1) MIXTURE with 2 mM Glutamax, supplemented with 10% of Foetal Bovine Serum, 1 mM Sodium Pyruvate, 11 mM Hepes and 1× Penicillin/Streptomycin. CHO hLPA2 cells are seeded into black walled clear-bottom 384-well plates (#781091, Greiner Bio-One GmbH) at a density of 7,500 cells per well in 50 μl culture media and grown overnight in a 37° C. humidified CO2-incubator. Serial dilutions (1:3 or 1:4, 11 points CRC) of compounds are performed in 100% DMSO at 200× the final concentration. The compounds are diluted 1:50 prior to the experiment with Assay Buffer (20 mM HEPES, 145 mM NaCl, 5 mM KCl, 5.5 mM glucose, 1 mM MgCl2 and 2 mM CaCl2), pH 7.4 containing 0.01% Pluronic F-127) to obtain a solution corresponding to […] the final concentration in the assay (4×, 2% DMSO). The final concentration of DMSO in the assay will be 0.5% in each well. Medium is removed by aspiration and cells are then incubated with 30 μl of a loading solution containing 5 μM of the cytoplasmic Ca2+ indicator Cal-520 AM in Assay Buffer containing 2.5 mM probenecid for 30 min at 37° C. incubator (cell loading). The loaded cell plates are transferred into the FLIPR instrument and calcium responses are monitored during the on-line addition protocols. For testing of compounds, after the cell loading, 10 μl/well of 4× antagonists' solution was added onto the cells. After 30 min pre-incubation (at 37° C.), 10 μl/well of 5× concentrated LPA EC80 was added and Ca2+ mobilization responses was followed during the on-line addition protocol. Intracellular peak fluorescence values subtracted by baseline fluorescence are exported and analysed to determine IC50 values, respectively. The calcium response is expressed as percentage of the maximal inhibition of the EC80 agonist response.
The raw data obtained in unstimulated controls (DMSO, no LPA) are set as “100% inhibition”, while the raw data obtained in negative controls, i.e. in the absence of compounds and stimulating with LPA EC80, are set as “0% inhibition”.
The raw data (peak height expressed as relative fluorescence units) are normalized and transformed into “percent of inhibition”. Curve fitting and pIC50 (−Log IC50) estimations are carried out using a four-parameter logistic model using XLfit Software.
(Calcium flux is commonly read through the fluorescence of an indicator in the cells.)
Consider `COC(=O)Nc1nc(C)c(S(=O)(=O)N2CCN(C[C@H](C)NC(=O)c3cccc(-c4sc(C)nc4C)c3)CC2)s1` [Example 1, methyl N-[5-({4-[(2S)-2-{[3-(2,4-dimethyl-1,3-thiazol-5-yl)phenyl]formamido}propyl]piperazin-1-yl}sulfonyl)-4-methyl-1,3-thiazol-2-yl]carbamate], for which the IC50 was under 10 nM.

Turning to `Cc1cc(-c2ccc(S(=O)(=O)N3CCN(C[C@H](C)NC(=O)c4cc(-c5sc(C)nc5C)ccc4F)CC3)s2)on1` [Example 2, 5-(2,4-dimethyl-1,3-thiazol-5-yl)-2-fluoro-N-[(2 S)-1-(4-{[5-(3-methyl-1,2-oxazol-5-yl)thiophen-2-yl]sulfonyl}piperazin-1-yl)propan-2-yl]benzamide], the IC50 was 10 to 100 nM.

For `Cc1cc(-c2ccc(S(=O)(=O)N3CCN(C[C@H](C)NC(=O)c4cc(-c5sc(C)nc5C)ccn4)CC3)s2)on1` [Example 3, 4-(2,4-dimethyl-1,3-thiazol-5-yl)-N-[(2S)-1-(4-{[5-(3-methyl-1,2-oxazol-5-yl)thiophen-2-yl]sulfonyl}piperazin-1-yl)propan-2-yl]pyridine-2-carboxamide], the half-maximal inhibitory concentration (IC50) was in the range of 10 to 100 nM.

For `COC(=O)Nc1nc(C)c(S(=O)(=O)N2CCN(C[C@H](C)NC(=O)c3cc(-c4sc(C)nc4C)ccn3)CC2)s1` [Example 4, methyl N-[5-({4-[(2S)-2-{[4-(2,4-dimethyl-1,3-thiazol-5-yl)pyridin-2-yl]formamido}propyl]piperazin-1-yl}sulfonyl)-4-methyl-1,3-thiazol-2-yl]carbamate], the IC50 is under 1000 nM.

Consider `COC(=O)Nc1nc(C)c(S(=O)(=O)N2CCN(C[C@H](C)NC(=O)c3cc(-c4sc(C)nc4C)ccc3F)CC2)s1` [Example 5, methyl N-[5-({4-[(2S)-2-{[5-(2,4-dimethyl-1,3-thiazol-5-yl)-2-fluorophenyl]formamido}propyl]piperazin-1-yl}sulfonyl)-4-methyl-1,3-thiazol-2-yl]carbamate], for which the 50% inhibitory concentration (IC50) was in the range of 10 to 100 nM.

Turning to `COC(=O)Nc1nc(C)c(S(=O)(=O)N2CCN(C[C@H](C)NC(=O)c3cccc(-c4sc(C)nc4C)n3)CC2)s1` [Example 6, methyl N-[5-({4-[(2S)-2-{[6-(2,4-dimethyl-1,3-thiazol-5-yl)pyridin-2-yl]formamido}propyl]piperazin-1-yl}sulfonyl)-4-methyl-1,3-thiazol-2-yl]carbamate], the half-inhibitory concentration (IC50) is under 1000 nM.

On to `COC(=O)Nc1nc(C)c(S(=O)(=O)N2CCN(C[C@H](C)NC(=O)c3cccc(-c4cccc(CN(C)C)c4)c3)CC2)s1` [Example 7, methyl N-[5-({4-[(2S)-2-({3′-[(dimethylamino)methyl]-[1,1′-biphenyl]-3-yl}formamido)propyl]piperazin-1-yl}sulfonyl)-4-methyl-1,3-thiazol-2-yl]carbamate], for which the IC50 lay within 10 to 100 nM.

As to `COC(=O)Nc1nc(C)c(S(=O)(=O)N2CCN(C[C@H](C)NC(=O)c3cccc(-c4ccc(C)nc4)c3)CC2)s1` [Example 8, methyl N-[4-methyl-5-({4-[(2S)-2-{[3-(6-methylpyridin-3-yl)phenyl] formamido}propyl]piperazin-1-yl}sulfonyl)-1,3-thiazol-2-yl]carbamate], the 50% inhibitory concentration (IC50) was 10 to 100 nM.

Regarding `COC(=O)Nc1nc(C)c(S(=O)(=O)N2CCN(C[C@H](C)NC(=O)c3cccc(-c4cn(C)nc4C(F)(F)F)c3)CC2)s1` [Example 9, methyl N-[4-methyl-5-({4-[(2S)-2-({3-[1-methyl-3-(trifluoromethyl)-1H-pyrazol-4-yl]phenyl}formamido)propyl]piperazin-1-yl}sulfonyl)-1,3-thiazol-2-yl]carbamate], the half-maximal inhibitory concentration (IC50) was under 1000 nM.

Turning to `COC(=O)Nc1nc(C)c(S(=O)(=O)N2CCN(C[C@H](C)NC(=O)c3cc(-c4cccc(CN(C)C)c4)cs3)CC2)s1` [Example 10, methyl N-[5-({4-[(2S)-2-[(4-{3-[(dimethylamino)methyl]phenyl}thiophen-2-yl)formamido]propyl]piperazin-1-yl}sulfonyl)-4-methyl-1,3-thiazol-2-yl]carbamate], the IC50 is under 1000 nM.

As to `Cc1nc(C)c(-c2cccc(C(=O)N[C@@H](C)CN3CCN(S(=O)(=O)c4ccc5[nH]c(=O)sc5c4)CC3)c2)s1` [Example 11, 3-(2,4-dimethyl-1,3-thiazol-5-yl)-N-[(2S)-1-{4-[(2-oxo-2,3-dihydro-1,3-benzothiazol 6-yl)sulfonyl]piperazin-1-yl}propan-2-yl]benzamide], the half-inhibitory concentration (IC50) was under 1000 nM.

Staying with this assay, now noted: compound called inactive on receptor LPA2, read-out: IC50 on LPA2 receptor.
As for `COC(=O)Nc1nc(C)c(S(=O)(=O)N2CCN(C[C@H](C)Nc3ncnc4ncccc34)CC2)s1` [Comparative Example A, Methyl (S)-(4-methyl-5-((4-(2-(pyrido[2,3-d]pyrimidin-4 ylamino)propyl)piperazin-1-yl)sulfonyl)thiazol-2-yl)carbamate, reference compound], the half-inhibitory concentration (IC50) was over 3000 nM.
